{
  "source": "patent US4970162A",
  "about": "“Human-mouse hybrid cell line expressing monocyte-macrophage properties” (The United States of America as represented by the …, priority 1985, dated 1990)",
  "key": {"WBC264-9 cells": {"test_system": "WBC264-9 cells", "assay": "chemotaxis of WBC264-9 cells in 48-well microchemotaxis chamber", "type": "cell-based, human-mouse hybrid", "protocol": "(§1) Chemotaxis by the cell lines was measured in a 48-well microchemotaxis chamber (Neuro Probe, Inc., Cabin John, Md.) with a 10 μm thick Nuclepore polycarbonate membrane coated with polyvinylpyrrolidone and containing 5 μm pores as described by Aksamit, et al., J. Immunol 126:2194 (1981). Upper wells contained 50,000 cells in MEM with 10% heat-inactivated fetal calf serum, and lower wells contained attractant in RPMI-1640 (GIBCO, Grand Island, N.Y.). […] EAMS was prepared as described by Aksamit et al., supra. Cells in the chemotaxis chamber were allowed to migrate for 4 hrs at 37° C. in an atmosphere of 5% CO2 and 95% air. The top cells were wiped off the filter, and cells on the bottom were stained in Diff-Quik (Harleco, Gibbstown, N.J.). Chemotaxis was quantified by measurement of the optical density of the migrated cells."}, "RAW264 cells": {"test_system": "RAW264 cells", "assay": "chemotaxis of RAW264 cells", "type": "cell-based", "details": "mouse RAW264 cells", "protocol": "as §1"}, "macrophage chemotaxis": {"test_system": "macrophage chemotaxis", "details": "cited from earlier work"}},
  "data": [
    {"molecule": "CSCC[C@H](NC=O)C(=O)N[C@@H](CC(C)C)C(=O)N[C@@H](Cc1ccccc1)C(=O)O", "note": "[FMLP, N-formylmethionine-leucine-phenylalanine]", "values": [
      {"measurement": "chemotaxis to FMLP", "setting": "WBC264-9 cells; 30 nM FMLP, cell line 9 (WBC264-9), for 20 passages, FIG. 1", "result": "high level of chemotaxis"},
      {"measurement": "concentration of optimal chemotactic response", "setting": "WBC264-9 cells; WBC264-9 cells, 4 hrs at 37° C., FIG. 2", "result": "approximately 3×10^-8 M"},
      {"measurement": "chemotaxis to FMLP", "setting": "RAW264 cells", "result": "do not exhibit chemotaxis"}
    ]},
    {"molecule": "pertussis toxin", "values": [
      {"measurement": "inhibition of macrophage chemotaxis", "setting": "macrophage chemotaxis", "result": "potent inhibitor"}
    ]}
  ]
}
